Results on one compound are retold here after patent US20220354818A1, “METHODS FOR TREATING BRAIN INJURY OR COGNITIVE DYSFUNCTION BY PHARMACOLOGICAL ENHANCMENT OF M-TYPE POTASSIUM ION CURRENTS IN NEURONS” (Advanced Neuroresearch Therapeutics LLC, priority 2019, published 2022).

The structures appear in SMILES notation.

The test system of one assay is mice subjected to rbTBI. The experiment in a line: Sleep-wake cycle analysis of EEG after rbTBI. The assay is classed as in vivo, mouse. To be noted: first week post-rbTBI. Here is the method:
To study the sleep-wake cycle, video/EEG records from the first 72 hour long record session (starting 2 days after the last injury) and the last 48 hour long record session (9 months after the last injury) were analyzed. To select one EEG channel from each animal/session for further analysis, we performed visual inspections of the raw local field potentials and their time-frequency decompositions (spectrograms) recorded from the three electrodes. EEG channels with signal saturation and background noise or artifacts were discarded. Then, the EEG channel with the highest percentage power at the 5-12 Hz frequency band was used to classify the sleep-wake cycle. Awake state (WK), slow wave sleep (SWS), rapid eye movement sleep REM), and transition/undetermined states (US) were classified based on two power spectral ratios, as described by Gervasoni et al., Global Forebrain Dynamics Predict Rat Behavioral States and Their Transitions, J Neurosci 24(49): 11137-11147 (2004). In brief, it first measures the relative power within fast (0.5-20/0.5-50 Hz) and slow (0.5-4.5/0.5-9 Hz) frequency bands and then generates a 2 dimensional (2D) state-space on which clusters are manually selected and associated with each state of the sleep-wake cycle.

The test system of assay [1] is TAR DNA-binding protein 43 (TDP-43). The experiment in a line: TDP-43 immunoblotting and immunohistochemistry after rbTBI (CTE marker). The assay is classed as in vivo, mouse. The protocol: Levels of TDP-43 were first analyzed by immunoblotting experiments performed as previously described. Cortical and hippocampal samples were collected when the mice were 26-28 months of age.
Complementary to the immunoblot experiments, immunohistochemistry staining of TDP-43 was performed as previously described. Left hemisphere samples were removed and fixed overnight in 4% paraformaldehyde (Electron Microscopy Sciences). Subsequently, samples were transferred into 30% (w/v) sucrose in PBS and kept for 3 days at 4° C. before they were frozen in Tissue-Plus O.C.T. Compound (Fisher Scientific) using 2-methylbutane immersed in dry ice. Samples were stored at −80° C. until cross-sectioning.
20 μm thick coronal sections of the prefrontal cortex (PFC) were mounted on Superfrost Plus microscope slides (Fisher Scientific) previously coated with gelatin (Sigma). […] Images were taken in the PFC layer II at 40× magnification using an iXon ultra EMCCD Andor camera attached to a Nikon Eclipse TE2000-U microscope, with a fixed exposition time of 200 ms, in the 16-bit readout mode, with 2 MHz speed, and a pre-amplifier gain of 3. The mean and maximum fluorescence signal was obtained by automatic quantification with ImageJ (National Institutes of Health, USA). […]
Samples used in the immunoblotting and the immunohistochemistry experiments were from the EEG-monitored mice and from the above independent cohort. […]
(A western blot detects proteins with antibodies after separation by electrophoresis.)

For assay [2], the system named is mice subjected to one blunt TBI (CCCI). The experiment in a line: Dosage optimization: spontaneous myoclonic seizures after one blunt TBI (CCCI). It counts as in vivo, mouse. To be noted: RTG 0.3, 1 and 3 mg/kg i.p. once 30 minutes post-TBI; second to fourth day. Here is the method: An additional KCNQ2/3-specific compound, RL648_81 was also administered in the same manner (0.03 mg/kg, 0.1 mg/kg, and 0.3 mg/kg). […] To monitor the occurrence of spontaneous myoclonic seizures after, the mice were video/EEG monitored from the second to the fourth day after the TBI (72 hours total).

In assay [3] the test system is mice subjected to one blunt TBI, pentylenetetrazol (PTZ). The experiment in a line: PTZ-induced seizure susceptibility after one blunt TBI (CCCI). It counts as in vivo, mouse. As to conditions: RTG at 1 mg/kg; PTZ 35 mg/kg s.c. fifth day post-TBI. An excerpt: Stimulation with PTZ induced the occurrence of clonic and tonic-clonic seizures in TBI-subjected mice.
Assay [4] concerns mice subjected to one blunt TBI, PTZ. The experiment in a line: Treatment window study: PTZ-induced seizure duration after one blunt TBI. The assay is classed as in vivo, mouse. Here is the method:
Mice were video-EEG monitored for 24 hours after stimulation with a normally sub-seizure threshold dose of PTZ (35 mg/kg; s.c.) administered on the fifth day post-TBI, which caused the mice to respond with prolonged seizures. […] A TBI cohort (vehicle only) was also assessed for control purposes.

The subject of assay [5] is C57BL/6J mice subjected to three blast TBIs. The assay can be described thus: Repetitive blast TBI (rbTBI): post-traumatic seizures and post-traumatic epilepsy, video/EEG.
Description: Adult 12-week-old male C57BL/6J mice (Jackson Labs, Bar Harbor, Me.) were group-housed with food and water ad libitum in 12:12 hour light: dark cycle. […] Experimenters were blinded to group allocation during data collection and analysis.
The shock tube (Applied Research Associates) had and inner diameter of 17 inches and a about 36-inch end opening. […] Before reaching the mice, the air blast wave passed through a 0.016-inch-thick aluminum membrane of alloy AL-2200. Pencil probe gauges (PCB Piezotronics) were placed beside the mice to monitor the pressure of the air-driven blast wave. […] During the procedure, mice were anesthetized using ketamine (25-75 mg/kg) and dexmedetomidine (0.25 mg/kg). The animals were subjected to three directed head-on blast TBI with 24 hours intervals between each injury. On the first day of blast exposure, animals were given a subcutaneous injection of buprenorphine SR (1.2 mg/kg) in the interscapular region.
Sham animals were anesthetized and placed in the shock tube but were not subjected to the rbTBI. After each blast exposure, mice were given one subcutaneous injection of atipamezole (1 mg/kg) to reverse the anesthesia and placed into a recovery chamber with controlled temperature. On the following days, mice were monitored for signs of pain and distress.
Mice from the “TBI” group were injected with the same volume of vehicle solution only.
Seizures were identified visually by the investigator's analysis of the video/EEG records. The number of seizures, latency to the first seizure, seizure duration, and percentage of mice from each group that had seizures were quantified.

As for `CCOC(=O)Nc1ccc(NCc2ccc(F)cc2)cc1N` [RTG, 2-amino-4-(4-fluorobenzylamino)-1-ethoxycarbonylaminobenzene], the “percentage of time in awake state” value in the assay on mice subjected to rbTBI is reported as “roughly equivalent to that experienced by the Sham group”. Moreover, the “TDP-43 expression in the cerebral cortex” value in assay [1] (2 years after TBIs, immunoblot and immunofluorescence) is “reduced TDP-43 as compared to the Blast cohort”. For the same compound, the “phosphorylation levels of TDP-43” value in assay [1] (cerebral cortex) is on record as “Neither TBI, nor RTG treatment, changed the phosphorylation levels of TDP-43”. Also, the “occurrence of myoclonic seizures post-TBI” value in assay [2] is given as “significantly reduced the occurrence of myoclonic seizures”. The “occurrence of PTZ-induced seizures” value in assay [3] is recorded as “completely blocked the occurrence of PTZ-induced seizures”. Besides, the PTZ-induced seizure duration entry was “significantly reduced induced seizure duration” in assay [4] (RTG 1 mg/kg i.p. at 1-hour post-TBI); “Lesser effects were observed” in assay [4] (RTG 1 mg/kg i.p. at 2 hours and 6 hours post-TBI). In addition, the “duration of post-traumatic seizures (PTS)” value in assay [5] (rbTBI, RTG 1.2 mg/kg i.p. 30 minutes after each blast, second to fourth day after TBIs) is listed as “significantly reduced duration of the PTS”. In addition, the “mice experiencing seizures (PTE)” value in assay [5] (rbTBI, RTG 30 minutes after each TBI, first to ninth month after final rbTBI) was “about 20%”. In addition, the “severity of post-traumatic seizures (EEG amplitude)” value in assay [5] (rbTBI, RTG 30 minutes after each blast) is “less severe”. The “mice that developed post-traumatic epilepsy (PTE)” value in assay [5] (three blast TBIs one day apart, RTG 30 min after each, 1 month to 12 months after injury) was determined as 25%.
